From ChEMBL document CHEMBL3785092, “Synthesis and biological evaluation of novel tetrahydroisoquinoline-C-aryl glucosides as SGLT2 inhibitors for the treatment of type 2 diabetes” (Eur J Med Chem, 2016) come the findings set out here.

The experiment addresses T1, Sodium/glucose cotransporter 2 (Homo sapiens) (UniProt P31639).
T1 sequence (whole entry): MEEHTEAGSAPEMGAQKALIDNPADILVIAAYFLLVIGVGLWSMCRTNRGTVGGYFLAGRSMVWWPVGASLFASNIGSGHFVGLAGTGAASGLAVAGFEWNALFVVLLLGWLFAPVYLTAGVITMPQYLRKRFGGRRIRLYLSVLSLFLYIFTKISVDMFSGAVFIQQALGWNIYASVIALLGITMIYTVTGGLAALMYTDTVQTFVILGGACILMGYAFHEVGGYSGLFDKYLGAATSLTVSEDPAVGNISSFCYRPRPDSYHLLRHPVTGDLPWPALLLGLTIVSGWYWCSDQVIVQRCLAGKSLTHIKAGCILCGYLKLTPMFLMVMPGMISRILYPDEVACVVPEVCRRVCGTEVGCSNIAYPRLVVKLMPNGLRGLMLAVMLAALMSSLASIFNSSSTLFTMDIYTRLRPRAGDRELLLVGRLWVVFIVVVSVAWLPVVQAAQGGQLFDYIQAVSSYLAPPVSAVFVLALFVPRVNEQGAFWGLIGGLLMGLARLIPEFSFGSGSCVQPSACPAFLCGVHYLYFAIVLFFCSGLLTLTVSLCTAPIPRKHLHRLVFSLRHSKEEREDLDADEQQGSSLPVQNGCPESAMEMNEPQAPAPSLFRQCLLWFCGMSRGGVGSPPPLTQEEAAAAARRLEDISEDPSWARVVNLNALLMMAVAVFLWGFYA
The experiment can be described thus: Inhibition of human SGLT2 expressed in CHO cells assessed as reduction in [14C]AMG uptake at 10 uM after 1 hr by liquid scintillation counting method relative to control. The class given is cell-based.
As for `OC[C@H]1O[C@@H](c2ccc3c(c2)[C@H](c2ccc4c(c2)OCO4)NCC3)[C@H](O)[C@@H](O)[C@@H]1O`, the inhibition was found to be 49.7%.

Take `CCOc1ccc(Cc2cc([C@@H]3O[C@H](CO)[C@@H](O)[C@H](O)[C@H]3O)ccc2Cl)cc1`: the inhibition was found to be 85.4%.

Turning to `COc1ccc(C[C@@H]2NCCc3ccc([C@@H]4O[C@H](CO)[C@@H](O)[C@H](O)[C@H]4O)cc32)cc1`, the inhibition came to 32.1%.

As a reminder, the inhibition is how much of the control response was suppressed.
